The target of data set [1] is angiotensin converting enzyme (ACE) (Homo sapiens, UniProt P12821). Particulars: cited from earlier work.
A short description of data set [2]: 1 mg/ml ramipril solution in buffer, principal impurity after 12 hours at 50° C. It is filed as physicochemical. On the procedure:
An experiment was carried out in which 50 mg of ramipril was dispersed in 50 ml water and known concentrations of buffer were added. The solutions were placed in a stoppered bottle and stored for 12 hours at 50° C.

[3] abbreviates: buffer Sodium carbonate 0.24 mg/ml.
Setting [4] is: buffer Sodium carbonate 0.74 mg/ml.
The mark [5] stands for this setting: buffer Sodium carbonate 1.00 mg/ml.
Where [6] appears, read: buffer Sodium citrate 0.72 mg/ml.
Where [7] appears, read: buffer Sodium citrate 1.00 mg/ml.
The mark [8] stands for this setting: buffer Sodium citrate 1.90 mg/ml.

Chain of angiotensin converting enzyme (ACE) (P12821 30-1306, species assumed): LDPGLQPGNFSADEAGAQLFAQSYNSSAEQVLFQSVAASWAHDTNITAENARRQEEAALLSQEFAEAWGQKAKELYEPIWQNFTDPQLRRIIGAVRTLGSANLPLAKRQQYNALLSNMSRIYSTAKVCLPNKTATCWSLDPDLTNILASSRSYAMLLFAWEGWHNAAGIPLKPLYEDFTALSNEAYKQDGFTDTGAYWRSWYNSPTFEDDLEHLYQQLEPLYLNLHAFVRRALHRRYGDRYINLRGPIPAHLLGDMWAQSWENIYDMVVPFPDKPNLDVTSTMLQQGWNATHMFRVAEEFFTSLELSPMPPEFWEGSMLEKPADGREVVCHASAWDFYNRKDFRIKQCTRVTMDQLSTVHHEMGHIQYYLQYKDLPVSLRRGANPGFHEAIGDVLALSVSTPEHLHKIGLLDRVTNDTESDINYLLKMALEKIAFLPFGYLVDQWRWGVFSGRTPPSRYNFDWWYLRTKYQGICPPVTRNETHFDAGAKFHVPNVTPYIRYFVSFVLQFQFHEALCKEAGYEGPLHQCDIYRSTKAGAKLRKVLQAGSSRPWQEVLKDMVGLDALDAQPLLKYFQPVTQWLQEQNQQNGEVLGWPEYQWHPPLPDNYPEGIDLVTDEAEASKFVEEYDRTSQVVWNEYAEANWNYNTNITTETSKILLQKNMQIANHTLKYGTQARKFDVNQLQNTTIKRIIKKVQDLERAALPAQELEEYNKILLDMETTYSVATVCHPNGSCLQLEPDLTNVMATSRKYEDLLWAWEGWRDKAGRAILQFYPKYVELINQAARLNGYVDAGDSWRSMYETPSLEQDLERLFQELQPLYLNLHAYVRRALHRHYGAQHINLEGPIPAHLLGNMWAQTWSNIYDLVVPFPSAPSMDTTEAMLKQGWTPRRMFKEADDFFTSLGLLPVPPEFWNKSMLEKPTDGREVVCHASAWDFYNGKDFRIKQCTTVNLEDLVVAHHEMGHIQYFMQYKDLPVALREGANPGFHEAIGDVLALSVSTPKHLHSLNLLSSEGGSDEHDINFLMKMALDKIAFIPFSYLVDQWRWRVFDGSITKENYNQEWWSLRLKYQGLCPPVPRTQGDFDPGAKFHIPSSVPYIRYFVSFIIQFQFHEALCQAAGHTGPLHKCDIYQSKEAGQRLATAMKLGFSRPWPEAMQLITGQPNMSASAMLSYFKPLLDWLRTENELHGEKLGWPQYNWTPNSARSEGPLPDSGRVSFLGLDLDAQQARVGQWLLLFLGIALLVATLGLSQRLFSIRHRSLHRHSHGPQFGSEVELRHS

In the case of ramipril diketopiperazine, the “activity as an ACE inhibitor” value in data set [1] was “not active”.

With `C[C@H](N[C@@H](CCc1ccccc1)C(=O)O)C(=O)N1[C@H](C(=O)O)C[C@@H]2CCC[C@@H]21` [ramiprilat], the “potency as an ACE inhibitor relative to the parent compound ramipril” value in data set [1] (compared with ramipril) was “up to 6 times”.

Take `CCOC(=O)[C@H](CCc1ccccc1)N[C@@H](C)C(=O)N1[C@H](C(=O)O)C[C@@H]2CCC[C@@H]21` [Ramipril, (2S,3aS,6aS)-1[(S)-N-[(S)-1-carboxy-3-phenylpropyl]alanyl] octahydrocyclopenta[b]pyrrole-2-carboxylic acid, 1-ethyl ester]: the “Impurity D” value in data set [2] (buffer L arginine 1.44 mg/ml) was determined as 0.16%; in data set [2] (setting [3]) it was 0.22%; in data set [2] (setting [4]) it was 0.19%; in data set [2] (setting [5]), 0.17%; in data set [2] (setting [6]) it was 0.22%; in data set [2] (setting [7]), 0.23%. In data set [2] (setting [8]), the “Impurity D” value stood at 0.20%. Moreover, the “Impurity E” value in data set [2] (buffer L arginine 1.44 mg/ml) amounted to 13.7%; in data set [2] (setting [3]), 9.9%; in data set [2] (setting [4]), 11.3%; in data set [2] (setting [5]), 15.2%; in data set [2] (setting [6]), 8.2%; in data set [2] (setting [7]), 8.4%. Also, in data set [2] (setting [8]), the “Impurity E” value was found to be 7.5%.

Values taken from US20070098782A1, “Ramipril Formulation” (Selamine Limited, priority 2005, published 2007).
